Measurements taken from patent publication US20100119506A1, “Effectors of PAR-2 Activation and Their Use in the Modulation of Inflammation” (BOEHRINGER INGELHEIM INTERNATIONAL GMBH, priority 2008, published 2010).

Test system: trans vivo delayed type hypersensitivity (DTH)
Experiment: Trans vivo DTH model (footpad swelling)
Format: in vivo, mouse
Conditions: 10 mg/kg; 24 hours after PBMCs and TT
Experimental: FIGS. 8A and 8B show the ability of anti-PAR-2 antibodies Par-B (FIG. 8A) and Par-D (FIG. 8B) to inhibit trans vivo DTH. Shown are the changes in paw thickness after injection of human peripheral blood mononuclear cells alone (PBMC) or after injection of PBMCs and […] (TT). Mice were pretreated (ip at −3 hours) with PBS, hu IgG4 (20 mg/kg), or anti-PAR-2 antibody. Percent inhibition is shown at top of the bars. *p<0.05 as compared to PBS.
The trans vivo delayed type hypersensitivity (DTH) is a validated model of human T cell mediated inflammation in mice (Warnecke, G. et al. (2007) Transplantation 84(3):392-399; Pelletier, R. P. et al. (Mar. 28, 2007, Epub) Hum. Immunol. 68(6):514-522; Carrodeguas, L. et al. (1999) Hum. Immunol. 60(8):640-651). In this assay, human PBMCs from tetanus-sensitized donors are isolated and co-injected with tetanus toxoid (TT) into the mouse footpad. The swelling response that develops in the footpad is measured at 24 hours. This swelling response is dependent on antigen-specific activation of the human T cells as well as on the inflammation mediated by mouse cells.
Shown in FIG. 8A and FIG. 8B, are the changes in footpad thickness 24 hours after injection of PBMCs and TT.

C[C@@H]1C[C@H]2[C@@H]3CCC4=CC(=O)C=C[C@]4(C)[C@@]3(F)[C@@H](O)C[C@]2(C)[C@@]1(O)C(=O)CO [dexamethasone, reference compound]
inhibition of footpad swelling response: approximately 80%
